Results taken from patent publication US10154981B2, “Use of a feed composition for reducing methane emission in ruminants, and/or to improve ruminant performance” (DSM IP ASSETS B.V., priority 2011, dated 2018).

Tested on: rumen liquor
Assay: In vitro test for methane production (modified Hohenheim Forage value Test, HFT)
Conditions: for Effect on Methanogenesis (% compared to control) / Effect on VFA production (% compared to control): artificial TMR, 8 hours at 39° C.; for Effect on Methanogenesis (% compared to control) / Effect on VFA production (% compared to control) / VFA profile (as percentage of total VFA) Ace. / VFA profile (as percentage of total VFA) But. / VFA profile (as percentage of total VFA) Prop.: average of three experiments; for VFA profile (as percentage of total VFA) Ace.: acetate; for VFA profile (as percentage of total VFA) But.: butyrate; for VFA profile (as percentage of total VFA) Prop.: propionate

Structure (SMILES)	effect on the acetate/propionate ratio (in words) (3-nitrooxy propanol at 0.01% DM when combined with monensin)	methane inhibition (in words) (3-nitrooxy propanol used at 0.01% DM)	Effect on Methanogenesis (% compared to control) (Dose 0.005 % DM) [%]	Effect on VFA production (% compared to control) (Dose 0.005 % DM) [%]	Effect on Methanogenesis (% compared to control) (Dose 0.01 % DM) [%]	Effect on VFA production (% compared to control) (Dose 0.01 % DM) [%]	VFA profile (as percentage of total VFA) Ace. (Dose 0.005 % DM)	VFA profile (as percentage of total VFA) Ace. (Dose 0.01 % DM)	VFA profile (as percentage of total VFA) But. (Dose 0.005 % DM)	VFA profile (as percentage of total VFA) But. (Dose 0.01 % DM)	VFA profile (as percentage of total VFA) Prop. (Dose 0.005 % DM)	VFA profile (as percentage of total VFA) Prop. (Dose 0.01 % DM)
O=[N+]([O-])OCCCO [3-nitrooxy propanol, 3-Nitrooxypropanol]	further additive effect	maximal methane inhibition	−21	−3	−97	−13	57 percentage of total VFA	50 percentage of total VFA	7 percentage of total VFA	8 percentage of total VFA	36 percentage of total VFA	42 percentage of total VFA
CC[C@@]1([C@@H]2O[C@@H]([C@H]3O[C@@](O)(CO)[C@H](C)C[C@@H]3C)C[C@@H]2C)CC[C@H]([C@]2(C)CC[C@]3(C[C@H](O)[C@@H](C)[C@@H]([C@@H](C)[C@@H](OC)[C@H](C)C(=O)O)O3)O2)O1 [Monensin, monensin, reference compound]					−23	−6		56 percentage of total VFA		6 percentage of total VFA		38 percentage of total VFA
